Several values for one entry are separate records, joined by “and”; a condition that tells them apart may be missing. Identical values can stand only once. Entries after “also recorded” stand apart in the source; their conditions may differ. Like-named read-outs stand apart in the source and are kept apart here. Each block holds one compound with its values, some of them ahead of it.
Columns and labels:
INS-1 cells = assay: Response of membrane-anchored ZIMIR to extracellular Zn2+ and decay upon Zn2+ washout; assay type: cell-based, rat; conditions: INS-1 cells labeled with ZIMIR, EDTA 10 μM plus DPAS at low micromolar concentrations
Protocol: FIGS. 5A-B. Membrane anchored ZIMIR reports changes of [Zn^2+]e. (FIG. 5A) Example fluorescence images (Excitation 488±7.5 nm, emission 530±20 nm) of INS-1 cells labeled with ZIMIR at different [Zn^2+]e. (FIG. 5B) Quantification of the average ZIMIR fluorescence intensity along the plasma membrane (IZIMIR(PM)).
(FIG. 7A) Time courses of IZIMIR(PM) decay after washing INS-1 cells (initially bathed in FIBS containing 1 μM Zn^2+) with HBS containing EDTA (10 μM) and DPAS (0-8 μM). (FIG. 7B) ZIMIR imaging of insulin/Zn^2+ release of MIN6 cells bathed in SAB containing EDTA (10 μM) and DPAS (4 μM). Time courses of IZIMIR(PM) fluctuation of four separate regions of interest (ROI 1-4) and example ZIMIR images at different time points were shown (a-e; arrow heads highlighting local ZIMIR increases in separate ROIs at different time).
To characterize the response of membrane anchored ZIMIR to changes of extracellular Zn^2+ concentration ([Zn^2+]), the inventors varied [Zn^2+]e from low nanomolar to micromolar, using Zn^2-1 buffers containing nitrilotriacetic acid (for [Zn^2+]e<100 nM) (Hirano et al., 2000) or histidine (for [Zn^2+]e. 100 nM) (Hauser and Tsien, 2007). After recording fluorescence images at different [Zn^2+]e levels, the inventors washed cells with a nominally Zn^2+ free SAB containing 0.2 mM DPAS and followed the decay of IZIMIR(PM).
Upon membrane depolarization, ZIMIR signal increased immediately and reached a plateau before it gradually declined (FIGS. 6E-F). Unexpectedly, however, in some occasions, ZIMIR signal remained elevated even after the inventors lowered KCl concentration to the resting level (5 mM) (FIG. 9). […] In INS-1 beta cells labeled with ZIMIR, after recording ZIMIR fluorescence in solutions containing ˜1 μM of Zn2+, the inventors perifused cells with a nominally Zn^2+-free solution containing only EDTA (10 μM), or with both EDTA (10 μM) and different concentrations of DPAS.

[1] = Competition assay of Zn2+ chelation kinetics (ZIMIR-C2 fluorescence decline after adding EDTA or DPAS); conditions: physiological salines, ZIMIR-C2 1 μM in Hanks Balanced Saline Solution
Protocol: FIG. 10. […] In this competition assay, fluorescence intensity (Ex 490 nm, Em 525 nm) of ZIMIR-C2 (1 μM) in Hanks Balanced Saline Solution was recorded. The rate of fluorescence intensity decline after adding EDTA or DPAS reflects the kinetics of EDTA/Zn^2I or DPAS/Zn^2+ complexation.

[2] = FluoZin-3, background; read-out: Zn^2+ dissociation constant Kd(Zn^2+); cited from earlier work
[3] = FluoZin-3, background; read-out: Kd(Ca^2+); cited from earlier work
[4] = Zn2+ titration of ZIMIR-C2 (fluorescence, NTA Zn2+ buffering system); assay type: binding
Protocol: (§1) FIGS. 3A-D. (FIG. 3A) Absorption spectrum of ZIMIR-C2. (FIG. 3B) Zn^2+ dependent fluorescence enhancement of ZIMIR-C2. Zn^2+ concentrations (nM) were 0, 43, 140, 440, 840, 1640 and 6440 (from bottom to top). (FIG. 3C) Zn^2+ titration of ZIMIR-C2 as measured from its emission at 515 nm. The solid line represents the exponential fit. […] All measurements were performed in buffers containing 100 mM Hepes, pH 7.5 with 0.4 μM of ZIMIR-C2.
Zn^2+ titration and ion selectivity of ZIMIR. To measure the Zn^2+ affinity of ZIMIR, we performed Zn2+ titration of ZIMIR-C2 (0.4 μM) using a Zn^2+ buffering system based on nitrilotriacetic acid (NTA) (Komatsu et al., 2005). The buffer contained 100 mM HEPES (pH 7.5), 10 mM NTA and varying concentrations of ZnSO4 (0-9 mM) to reach free Zn2+ concentration between 0.1 nM to 43 nM. Zn^2+ concentrations above 43 nM were not buffered. However, since the commercial Hepes always contains a trace amount of divalent metal (≦5 ppm), it was necessary to add a minimum amount of NTA to chelate the residual Zn^2+ present in the Hepes solution. […] From that point, increasing amount of ZnSO4 was added to reach higher Zn^2+ concentrations. […] To examine the Zn^2+ binding selectivity of ZIMIR against Ca^2+ or Mg^2+, we measured the fluorescence intensity of ZIMIR-C2 in a nominally Zn^2+ free solution containing 50 μM DPAS or in a solution containing 1 μM ZnCl2, with or without Ca^2+/Mg^2+ (1 mM).

[5] = Zn2+ binding selectivity of ZIMIR-C2 against Ca2+ or Mg2+ (fluorescence intensity); conditions: Ca^2+ 1 mM, Mg^2+ 1 mM; with or without 1 μM ZnCl2
Protocol: as §1
Zn^2+ titration and ion selectivity of ZIMIR. To measure the Zn^2+ affinity of ZIMIR, we performed Zn2+ titration of ZIMIR-C2 (0.4 μM) using a Zn^2+ buffering system based on nitrilotriacetic acid (NTA) (Komatsu et al., 2005). The buffer contained 100 mM HEPES (pH 7.5), 10 mM NTA and varying concentrations of ZnSO4 (0-9 mM) to reach free Zn2+ concentration between 0.1 nM to 43 nM. Zn^2+ concentrations above 43 nM were not buffered. However, since the commercial Hepes always contains a trace amount of divalent metal (≦5 ppm), it was necessary to add a minimum amount of NTA to chelate the residual Zn^2+ present in the Hepes solution. […] To examine the Zn^2+ binding selectivity of ZIMIR against Ca^2+ or Mg^2+, we measured the fluorescence intensity of ZIMIR-C2 in a nominally Zn^2+ free solution containing 50 μM DPAS or in a solution containing 1 μM ZnCl2, with or without Ca^2+/Mg^2+ (1 mM).

[6] = Absorption, fluorescence and solubility properties of ZIMIR-C2 in aqueous solution; assay type: physicochemical
Protocol: as §1
The inventors synthesized ZIMIR in a total of 8 steps (FIG. 2). […] The absorption maximum of ZIMIR-C2 centered around 493 nm with an extinction coefficient of 73,000 M-1 cm-1. At low nanomolar [Zn^2+], ZIMIR-C2 was nearly non-fluorescent (fluorescence quantum yield Qf (0 Zn^2+) =0.0032) (FIGS. 3A-D). Its fluorescence intensity increased with [Zn^2+]and reached a plateau at micromolar [Zn^2+], with an overall fluorescence enhancement of 70-fold upon Zn^2+ complexation (Qf (Zn^2+) =0.225), providing a Zn^2+ binding dissociation constant of 0.45 μM (FIG. 3C). To confirm that

pancreatic islets = assay: Confocal imaging of dye uptake and insulin/Zn2+ release in pancreatic islets; assay type: cell-based, mouse; conditions: ZIMIR 2 μM for 25 min; mouse and human islets
Protocol: FIGS. 8A-C. Imaging insulin/Zn^2+ release in islets by confocal laser scanning microscopy. (FIGS. 8A-B) Confocal images of mouse islets labeled with ZIMIR (FIG. 8A) or calcein/AM (FIG. 8B). (FIG. 8C) Confocal ZIMIR imaging of insulin/Zn^2+ release in a mouse islet bathed in SAB. Images from two example layers 15 μm apart before and 10 sec post KCl (40 mM) stimulation were shown.
FIG. 11. ZIMIR rapidly labels cells of intact human islets. Representative CLSM images of a ZIMIR labeled human islet at three focal planes 20 μm apart.
Islets labeling and ZIMIR imaging by confocal laser scanning microscopy. Experiments with rodent animals were carried out according to protocols approved by the Institutional Animal Care and Use Committee of University of Texas Southwestern Medical Center. Rodent islets were isolated from Sprague-Dawley rats or C57BL/6 mice after digesting exocrine tissues of pancreas using collagenase as described below. To image insulin release in islets, the inventors labeled islets with ZIMIR (final concentration 2 μM with 0.025% Pluronic) in SAB buffer for […]. Labeled islets were then transferred to an imaging dish that had been coated with 0.5% PuraMatrix peptide hydrogel (BD Biosciences, Cat # 354250). Islets adhered to the PuraMatrix hydrogel within 5 min. They then imaged ZIMIR fluorescence by confocal laser scanning microscopy using a LSM510 imaging system (Carl Zeiss) and a 40× oil immersion objective (Dakin and Li, 2007).
Confocal imaging of ZIMIR uptake and insulin/Zn^2+ release in pancreatic islets. In addition to cultured cells, ZIMIR also rapidly and noninvasively labels cells in preparations such as dissected pancreatic islets. After loading islets with ZIMIR (2 μM) for 25 min, the inventors applied CLSM to track the distribution of ZIMIR in three dimensions (3D). […] The result confirmed that ZIMIR readily diffused through the interstitial space to reach interior cells, whereas calcein/AM was trapped by cells in the outer layer, unable to penetrate any deeper. After labeling, the inventors depolarized cells with high concentration of KCl.

Compound: O=S(=O)(O)CCN(Cc1ccccn1)Cc1ccccn1 [DPAS, 2-[Bis(2-pyridinylmethyl)amino]-ethanesulfonic acid]
- increase of the rate of Zn^2+ dissipation from the plasma membrane (INS-1 cells): about one order of magnitude
- Zn^2+ chelation kinetics compared with EDTA [1]: much faster kinetics than EDTA

Compound: COc1ccc(N(CC(=O)O)CC(=O)O)c(OCCOc2cc(-c3c4cc(F)c(=O)cc-4oc4cc(O)c(F)cc34)ccc2NCC(=O)O)c1 [FluoZin-3]
- Kd [2]: 15 nM
- Kd [3]: ~10 µM

- Kd ([4]; 0.4 μM ZIMIR-C2, 100 mM HEPES pH 7.5, two independent titrations, read-out: Kd(Zn^2+), independent Zn^2+ titrations): 433 nM and 467 nM
- Kd ([4]; FIG. 3C, emission at 515 nm, read-out: Zn^2+ binding dissociation constant): 450 nM
- Kd ([4]; average of two titrations, 100 mM HEPES pH 7.5, read-out: average Kd(Zn^2+)): 450 nM
- absorption maximum ([6]; 100 mM Hepes, pH 7.5): around 493 nm
- aqueous solubility ([6]; aqueous solutions): highly soluble
- extinction coefficient ([6]; at absorption maximum): 73,000 M-1 cm-1
- fluorescence quantum yield Qf (0 Zn^2+) ([6]; low nanomolar [Zn^2+]): 0.0032
- fluorescence quantum yield Qf (Zn^2+) ([6]; upon Zn^2+ complexation, micromolar [Zn^2+]): 0.225
Compound: CCN(CC(=O)O)Cc1c2oc3c(CN(CC)CC(=O)O)c(O)ccc3c(-c3cc(NCCN(CCc4ccccn4)Cc4ccccn4)ccc3C(=O)O)c-2ccc1=O [ZIMIR-C2]
- overall fluorescence enhancement upon Zn^2+ complexation ([4]; plateau at micromolar [Zn^2+]): 70 fold
- effect of Ca^2+ and Mg^2+ on fluorescence / Zn^2+ selectivity [5]: neither Ca^2+ nor Mg^2+ affected ZIMIR-C2 fluorescence; also recorded: binds Zn^2+ selectively against Ca^2+ (1 mM) and Mg^2+ (1 mM)

Compound: calcein/AM [reference compound]
- distribution of dye in islets (3D, CLSM) (pancreatic islets): only labeled cells of the superficial layers

Reference: patent US8530183B2, “Zinc sensors for cellular imaging” (The Board of Regents of the University of Texas System, priority 2010, dated 2013)
